Source: ChEMBL document CHEMBL1201862, “PubChem BioAssay data set” (2004)
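Method: 48-hour compound exposure of cells in 96-well plates, five concentrations, linear interpolation of endpoints. Abbreviation: GI50, concentration required for 50% inhibition of growth.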 Calls of active or inactive are those of the source. No stated cut-off is given here; in the data, active = GI50 up to about 1.1 µM and inactive = higher.

Columns and labels:
Test in all cases: NCI anticancer screen, dose series, 48 h
CCRF-CEM = test system: CCRF-CEM
SK-MEL-5 = test system: SK-MEL-5
HL-60 = test system: HL-60
RXF 393 = test system: RXF 393
NCI-H226 = test system: NCI-H226
BT-549 = test system: BT-549
A498 = test system: A498
OVCAR-8 = test system: OVCAR-8
OVCAR-5 = test system: OVCAR-5
UO-31 = test system: UO-31
MDA-MB-231 = test system: MDA-MB-231
NCI-H23 = test system: NCI-H23
HOP-62 = test system: HOP-62
KM12 = test system: KM12
RPMI-8226 = test system: RPMI-8226
MDA-MB-435 = test system: MDA-MB-435
HT-29 = test system: HT-29
SW-620 = test system: SW-620
NCI-H460 = test system: NCI-H460
MDA-N = test system: MDA-N

Row | Structure (SMILES) | GI50 (CCRF-CEM) | GI50 (SK-MEL-5) | GI50 (HL-60) | GI50 (RXF 393) | GI50 (NCI-H226) | GI50 (BT-549) | GI50 (A498) | GI50 (OVCAR-8) | GI50 (OVCAR-5) | GI50 (UO-31) | GI50 (MDA-MB-231) | GI50 (NCI-H23) | GI50 (HOP-62) | GI50 (KM12) | GI50 (RPMI-8226) | GI50 (MDA-MB-435) | GI50 (HT-29) | GI50 (SW-620) | GI50 (NCI-H460) | GI50 (MDA-N)
1 | Cc1c(Cl)cc(C(C)(C)C)c(O)c1Cc1c(C)c(Cl)cc(C(C)(C)C)c1O | 0.303 µM (active) | 0.762 µM (active) | 1.17 µM (inactive) | 0.9 µM (active) | 2.22 µM (inactive) | 2.81 µM (inactive) | 1.26 µM (inactive) | 1.49 µM (inactive) | 3.43 µM (inactive) | 1.82 µM (inactive) | 1.65 µM (inactive) | 0.656 µM (active) | 2.96 µM (inactive) | 1.44 µM (inactive) | 0.273 µM (active) | 2.06 µM (inactive) | 1.54 µM (inactive) | 1.81 µM (inactive) | 0.634 µM (active) | 2.18 µM (inactive)
2 | COC(=O)C1=C(C)NC(C)=C([N+](=O)[O-])C1c1cccc(NO)c1 (stereo not given) | 2.34 µM (inactive) | 2.72 µM (inactive) | 2.8 µM (inactive) | 6.5 µM (inactive) | 7.28 µM (inactive) | 4.51 µM (inactive) | 6.24 µM (inactive) | 5.81 µM (inactive) | 14.7 µM (inactive) | 2.96 µM (inactive) | 3.64 µM (inactive) | 4.94 µM (inactive) | 9.44 µM (inactive) | 2.54 µM (inactive) | 2.51 µM (inactive) | 1.98 µM (inactive) | 2.86 µM (inactive) | 4.17 µM (inactive) | 3.37 µM (inactive) | 1.79 µM (inactive)
3 | COc1ccc(/C=C/c2cnc3ccccc3n2)cc1OC | > 100 µM (inactive) | 49.3 µM (inactive) | 47.2 µM (inactive) | > 100 µM (inactive) | > 100 µM (inactive) | 57.1 µM (inactive) | 45.7 µM (inactive) | 41.7 µM (inactive) | > 100 µM (inactive) | 34.7 µM (inactive) | 99.8 µM (inactive) | 67.8 µM (inactive) | 68.1 µM (inactive) | 47.8 µM (inactive) | 71.6 µM (inactive) | 44.1 µM (inactive) | 36.1 µM (inactive) | > 100 µM (inactive) | 30.3 µM (inactive) | 59 µM (inactive)
4 | O=C1O[C@H]2C3C4CCC(C4[C@@H]2I)[C@H]13 (stereo not given in full) | > 100 µM (inactive) | > 100 µM (inactive) | > 100 µM (inactive) | > 100 µM (inactive) | > 100 µM (inactive) | > 100 µM (inactive) | > 100 µM (inactive) | > 100 µM (inactive) | > 100 µM (inactive) | > 100 µM (inactive) | > 100 µM (inactive) | > 100 µM (inactive) | > 100 µM (inactive) | > 100 µM (inactive) | > 100 µM (inactive) | > 100 µM (inactive) | > 100 µM (inactive) | > 100 µM (inactive) | > 100 µM (inactive) | > 100 µM (inactive)
5 | CS(=O)(=O)Nc1ccc2ccccc2c1-c1c(NS(C)(=O)=O)ccc2ccccc12 | > 25 µM (inactive) | > 25 µM (inactive) | > 25 µM (inactive) | > 21.5 µM (inactive) | > 25 µM (inactive) | > 25 µM (inactive) | > 25 µM (inactive) | > 25 µM (inactive) | > 25 µM (inactive) | > 25 µM (inactive) | > 25 µM (inactive) | > 25 µM (inactive) | > 25 µM (inactive) | > 25 µM (inactive) | > 25 µM (inactive) | > 25 µM (inactive) | > 25 µM (inactive) | > 25 µM (inactive) | > 25 µM (inactive) | > 25 µM (inactive)
6 | Nc1nc(-c2ccc3ccccc3c2)cc(-c2cc(-c3ccc4ccccc4c3)nc(N)n2)n1 | > 100 µM (inactive) | > 100 µM (inactive) | > 100 µM (inactive) | > 100 µM (inactive) | > 100 µM (inactive) | > 100 µM (inactive) | > 100 µM (inactive) | > 100 µM (inactive) | > 100 µM (inactive) | > 100 µM (inactive) | > 100 µM (inactive) | > 100 µM (inactive) | > 100 µM (inactive) | > 100 µM (inactive) | > 100 µM (inactive) | > 100 µM (inactive) | > 100 µM (inactive) | > 100 µM (inactive) | > 100 µM (inactive) | > 100 µM (inactive)
